In US20100143441A1 (OsteoGeneX Inc., priority 2008, published 2010):

Tests used:
Wnt pathway = settings: Wnt+Sclerostin+2.5, 6.3, 12.5 or 25 ng nortriptyline; compared with Wnt only and Wnt+Sclerostin
Experimental: (§1) A general method of identifying SOST antagonists involves evaluating the effects of antagonist candidates on bone formation under controlled conditions. Preferably bone formation is determined using micro-CT techniques on live animals. Preferred animals include rodents, more preferred are primates. Femur, tibia and vertebrae bones are particularly useful subjects for such study.

SOST = SOST (Mus musculus, UniProt Q99P68); settings: predetermined dose for a complete dosing schedule, micro-CT versus control mouse
Chain of SOST (Q99P68 24-211): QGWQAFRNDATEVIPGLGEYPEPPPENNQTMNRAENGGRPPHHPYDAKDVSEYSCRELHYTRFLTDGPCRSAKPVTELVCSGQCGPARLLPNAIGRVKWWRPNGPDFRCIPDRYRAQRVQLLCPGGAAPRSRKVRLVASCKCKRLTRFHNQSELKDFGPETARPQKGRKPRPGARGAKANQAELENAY
Experimental: as §1
Briefly, the test animal is treated with a predetermined dose of a SOST antagonist candidate.
This can be accomplished by any suitable method, but is preferably performed on live animals to analyze the bone mineral content. […] A SOST antagonist candidate suitable for use as a SOST antagonist is identified by noting significant bone formation in the test animal when compared to the control animal. Bone formation in the test bone(s) of the test animal can be 0.5%, 1, 5, 10, 20, 30, 40, 50, 60, 70, 80, 90, 100, 200, 300, 400, 500, 600, 700, 800, 900 or 1000% more bone formation than is present in the same bones of the control animal. More preferably, bone formation can be 20%, most preferably 30% or 40%. Where necessary, levels of bone formation can be calculated by determining the volume of bone formation present in each animal. Calculations can be performed by constructing a 3-dimensional image of the bone formation and calculating the volume from the image with the aid of e.g., histomorphometry. […]

With `CNCCC=C1c2ccccc2CCc2ccccc21` [nortriptyline] the “modulation of the Wnt pathway” value (Wnt pathway) was “modulating the Wnt pathway” and the “bone growth (quantity of bone formation present)” value (SOST) was “promoting bone growth”.
